Experimental data taken from paper PMC4171606, “A novel copper(I) complex induces ER-stress-mediated apoptosis and sensitizes B-acute lymphoblastic leukemia cells to chemotherapeutic agents” (Oncotarget, 2014).
Read-outs that look alike come from different tables or passages of the source.

Assays:
[1] = system: human leukemia cell lines; assay: MTT growth inhibition, panel of twelve leukemia cell lines, 72 h; format: cell-based; settings: all cell lines, same experimental conditions as CP, data not shown
Protocol: [Cu(thp)4][PF6] (CP) was evaluated for its growth inhibition activity on a panel of twelve different human leukemia cell lines (five B-acute lymphoblastic leukemia, three T-acute lymphoblastic leukemia, three acute myeloid leukemia and one chronic myeloid leukemia). Cells were treated for 72 h with CP and cell viability was evaluated by MTT test. […] This abnormal high expression of proteasomal proteins and mRNA seem to be correlated to the hyperproliferation of these cancer cells and to the sensitivity towards proteasome inhibitors.
The human leukemia cell lines RS 4;11, SEM, REH, RCH-ACV, MHH-CALL2, Jurkat, CCRF-CEM, HSB2, HL-60, K562, THP-1, MV4;11 were purchased from the American Type Culture Collection. Cells were cultured in RPMI 1640 (Life Technologies, Italy) supplemented with 10% fetal bovine serum (FBS), glutamine (2 mM; Life Technologies, Italy), penicillin (100 U/ml; Life Technologies, Italy) and streptomycin (100 μg/ml; Life Technologies, Italy), and maintained at 37°C in a humidified atmosphere with 5% CO2. The cytotoxic activity of CP was determined using a standard 3-[4,5-dimethylthiazol-2-yl]-2,5-diphenyltetrazodium bromide (MTT) based colorimetric assay (Sigma-Aldrich, Italy). Briefly, cells were seeded at a density of 2×10^4 cells/well in 96-well microtiter plates. After 24 h, cells were exposed to the test compound. After different times, cell survival was determined by the addition of an MTT solution as previously described.

[2] = system: RS4;11 cells; assay: Combined drugs analysis, MTT 48 h, Chou and Talalay; format: cell-based; settings: Homo sapiens
Protocol: (§1) SEM and RS4;11 cell lines were exposed to dexamethasone (Dex), daunorubicine (Dauno), cytarabine (Ara-C) and vincristine (Vcr) in the presence or absence of CP, at fixed combination ratios.
(§2) To test potential synergistic, additive, or antagonistic effects of the combination of CP and drugs commonly used in B-ALL treatment, we performed MTT experiments as follows.
(§3) SEM, and RS4;11 cells were treated for 48 hours with one of the most used chemotherapeutic agents: cytarabine (Aractyn, Pfizer), daunorubicin (Pfizer), vincristine (Pfizer), or dexamethasone (Sigma-Aldrich). CP was also added to each drug solution, at fixed combination ratios. Cell viability was determined after 48 hours of treatment by MTT test as described above. To determine the synergistic, additive, or antagonistic effects of the drug combinations, we used CalcuSyn software (version 2.0, Biosoft, Cambridge, United Kingdom) based on the method of the combination index (CI) described by Chou and Talalay. Synergy, additivity and antagonism were defined by a CI<1, CI=1, or CI>1, respectively.

[3] = system: SEM cells; assay: as above; format: cell-based; settings: Homo sapiens
Protocol: as §1, §2, §3

[4] = system: RS4;11 and SEM cells; assay: MTT viability with CP in presence of pan-caspase inhibitor, 48 h; format: cell-based, human; settings: z-VAD.fmk 100 μM with CP 2.5 μM and 5 μM
Protocol: FIGURE 2 CP induces caspase-dependent apoptosis without mitochondria involvement (A) Assessment of mitochondrial membrane potential (ΔΨmt) after treatment of RS4;11 and SEM cells with CP (2.5 μM) for the indicated times. Cells were stained with the fluorescent probe JC-1. Data are represented as mean ± S.E.M. of three independent experiments. (B) Flow cytometric analysis of RS4;11 and SEM cells treated with CP (2.5 μM) for 24 h showing cytochrome c labeled with a monoclonal antibody conjugated to FITC. Representative image of three experiments with similar results. (C) Cells were incubated with CP 2.5 μM and 5 μM in the presence or absence of the pan-caspase inhibitor z-VAD.fmk (100 μM). Cell viability was determined after 48 h by MTT assay. Data are represented as mean ± S.E.M. of three independent experiments performed in triplicate. *p<0.01 vs CP alone. (D) Western blot analysis of Bcl-2, cleaved caspase-12, caspase-9, cleaved caspase-7, caspase-3 and PARP after treatment of SEM and RS4;11 cells with CP (2.5 μM) for the indicated times. To confirm equal protein loading, each membrane was stripped and reprobed with anti-β-actin antibody.
We therefore evaluated whether the inhibition of caspases with the pan-caspase inhibitor z-VAD.fmk would prevent cell death.

[5] = system: RS4;11 and SEM cells; assay: Annexin-V/PI assay with CP in presence of cycloheximide, 12 h; format: cell-based, human; settings: CHX 2 μg/ml with CP 2.5 μM
Protocol: To investigate if proteasome inhibition and ER stress could be responsible for CP-induced cell death, we assayed apoptosis and ER stress markers in the presence of cycloheximide (CHX), an inhibitor of protein synthesis that antagonizes ER-stress agents. The inhibition of protein synthesis reduced the accumulation of unfolded proteins in the ER and therefore ER-stress induced apoptosis.
Furthermore, CHX induced a remarkable reduction of GRP78 and CHOP expression, induced after 12 h of treatment with CP, when CHOP and GRP78 were highly expressed (Figure 5, panel C).
FIGURE 5 CP induces ER stress mediated apoptosis SEM (A) and RS4;11 (B) cells were incubated with CP (2.5 μM) in the presence or absence of cycloheximide (CHX) for 12 h, at the concentration of 2 μg/ml. Cells were analyzed by flow cytometry after double staining with Annexin-V-FITC and PI. Data are represented as mean ± S.E.M of three independent experiments. *p<0.05. (B) Western blot analysis showing the expression of GRP78 and CHOP after treatment of RS4;11 and SEM cells with CP (2.5 μM) for 12 h in the presence or absence of CHX (2 μg/ml).

[6] = RS4;11, 48 h, MTT, drug alone or with CP at fixed molar ratio, mean ± SE, read-out: GI50
[7] = SEM, MTT, drug alone or with CP at fixed molar ratio, mean ± SE, read-out: GI50

SMILES	GI50 [2, 6] [nM]	GI50 [3, 7] [nM]	further results
[Cl][Cu][Cl] [CuCl2]	–	–	concentration giving only a slight reduction of cell viability [1]: > 250 µM
Nc1ccn([C@@H]2O[C@H](CO)[C@@H](O)[C@@H]2O)c(=O)n1 [AraC, cytarabine]	21 ± 7.1	22.3 ± 1.8	–
[Cl][Cu] [CuCl]	–	–	concentration giving only a slight reduction of cell viability [1]: > 250 µM
COc1cccc2c1C(=O)c1c(O)c3c(c(O)c1C2=O)C[C@@](O)(C(C)=O)C[C@@H]3O[C@H]1C[C@H](N)[C@H](O)[C@H](C)O1 [Dauno, daunorubicin]	–	–	GI50 ([2]; RS4-11, 48 h): 19.2 ± 1.9 nM; GI50 [3]: 96 ± 14.1 nM
CC[C@]1(O)C[C@H]2CN(CCc3c([nH]c4ccccc34)[C@@](C(=O)OC)(c3cc4c(cc3OC)N(C=O)[C@H]3[C@@](O)(C(=O)OC)[C@H](OC(C)=O)[C@]5(CC)C=CCN6CC[C@]43[C@@H]65)C2)C1 [Vcr, vincristine]	0.071 ± 0.042	13.1 ± 1.2	–
CC(C)[C@H](NC(=O)OCc1ccccc1)C(=O)N[C@@H](C)C(=O)NC(CC(=O)O)C(=O)CF (mixture of isomers) [z-VAD.fmk, N-[(benzyloxy)carbonyl]-L-Val-Ala-DL-Asp-fluoromethylketone]	–	–	cell viability of CP-treated cells [4]: significantly increased cell viability
C[C@@H]1C[C@H]2[C@@H]3CCC4=CC(=O)C=C[C@]4(C)[C@@]3(F)[C@@H](O)C[C@]2(C)[C@@]1(O)C(=O)CO [Dex, dexamethasone]	0.12 ± 0.025	643 ± 44.2	–
C[C@@H]1C[C@@H]([C@H](O)CC2CC(=O)NC(=O)C2)C(=O)[C@@H](C)C1 [CHX, cycloheximide]	–	–	protection from CP induced cell death [5]: significant protection from CP induced cell death
